The target in the test is hDGAT2 (Homo sapiens (Human), UniProt Q96PD7). The test can be described thus: DGAT2 Enzymatic Activity Assay. It counts as biochemical. The note with it: hDGAT2 Sf-9 membrane prep; 25 μM diolein, 10 μM oleoyl-CoA; triolein product by LC/MS/MS; read-out: IC50 values for inhibition of DGAT2. Summed up: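 Membranes from Sf-9 cells expressing untagged hDGAT2 (10 ng/μL) incubated at room temperature with 25 μM diolein and 10 μM oleoyl-CoA in 100 mM Tris pH 7.0, 20 mM MgCl2, 5% ethanol. Triolein product quantified by LC/MS/MS against spiked internal standard; IC50 from 4-parameter sigmoidal fit.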
hDGAT2, sequence (Q96PD7 whole entry): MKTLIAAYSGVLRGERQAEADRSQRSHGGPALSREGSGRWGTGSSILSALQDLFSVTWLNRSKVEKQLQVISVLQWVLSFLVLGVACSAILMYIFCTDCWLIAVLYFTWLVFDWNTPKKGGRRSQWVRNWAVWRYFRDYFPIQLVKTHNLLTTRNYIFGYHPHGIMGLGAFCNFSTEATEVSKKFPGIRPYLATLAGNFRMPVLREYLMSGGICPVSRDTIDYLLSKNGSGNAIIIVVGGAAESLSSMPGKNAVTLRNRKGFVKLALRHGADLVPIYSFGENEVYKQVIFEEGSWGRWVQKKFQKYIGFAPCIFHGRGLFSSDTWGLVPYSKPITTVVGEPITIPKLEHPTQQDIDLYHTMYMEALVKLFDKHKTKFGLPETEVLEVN

For the compound `Cc1noc([C@@H]2C[C@H]2C(=O)NCc2ccc(-c3cccc(C(F)(F)F)c3)c3c2CN(C(=O)C(C)(C)O)CC3)n1` (stereo in doubt) [Example 120, (trans)-N-((2-(2-hydroxy-2-methylpropanoyl)-5-(3-(trifluoromethyl)phenyl)-1,2,3,4-tetrahydroisoquinolin-8-yl)methyl)-2-(3-methyl-1,2,4-oxadiazol-5-yl)cyclopropanecarboxamide], the IC50 is 1.58 µM.

Values taken from patent US10568876B2, “Tetrahydroisoquinoline derivatives useful as inhibitors of diacylglyceride O-acyltransferase 2” (Merck Sharp & Dohme Corp., priority 2014, dated 2020).
